{
  "source": "patent US7125862B2",
  "about": "“Porphyrin-metal complexes and oxygen infusions containing the same” (Japan Science and Technology Agency, priority 2001, dated 2006)",
  "experiment": "Oxygen adsorption-desorption and oxygen affinity (P1/2) of the porphinatoiron(II) complex in toluene solution, by visible absorption spectrum",
  "type": "binding",
  "protocol": "46.2 μg (0.03 μmol) of 2-8-(2-methyl-1-imidazolyl)octanoyloxymethyl-5,10,15,20-tetrakis(α,α,α,α-o-(1-methylcyclohexylamido)phenyl)porphinatoiron(III) complex-bromide synthesized in Example 7 was prepare into 10 ml of toluene anhydride solution and the atmosphere in the system was replaced with nitrogen. Then, the solution was mixed and stirred for 2 hours with an aqueous dithionous acid solution in a heterogeneous system to reduce the iron to the iron(II) state. Under nitrogen atmosphere, the toluene layer was extracted, dried over sodium sulfate anhydride and filtrated. The resulting toluene solution was transferred to and sealed in a measuring cell. Thus, a toluene solution of 2-8-(2-methyl-1-imidazolyl)octanoyloxymethyl-5,10,15,20-tetrakis(α,α,α,α-o-(1-methylcyclohexylamido)phenyl)porphinatoiron(II) complex was obtained. The visible absorption spectrum of this solution was λmax: 441, 539, 558 nm, and corresponded to that of a five-coordinated deoxy-type complex in which one imidazole was coordinated.\nWhen oxygen gas was blown into this solution, the spectrum immediately changed to λmax: 424, 552 nm.\nConsequently, the adsorption-desorption of oxygen could be continuously carried out by repeating the operation of blowing oxygen and then nitrogen.",
  "data": [
    {"substance": "2-8-(2-methyl-1-imidazolyl)octanoyloxymethyl-5,10,15,20-tetrakis(α,α,α,α-o-(1-methylcyclohexylamido)phenyl)porphinatoiron(II) complex [Example 11]", "values": [
      {"measurement": "oxygen affinity (partial pressure of oxygen when 50% of the entire porphinatoiron is oxygenated (=P1/2))", "setting": "25° C.", "value": 20, "unit": "torr"},
      {"measurement": "reversibility of adsorption-desorption of oxygen", "setting": "oxygen blown, then nitrogen gas for 1 minute, visible absorption spectrum", "value": "adsorption-desorption of oxygen occurred reversibly"}
    ]}
  ]
}
